Laboratory results as given in patent US20230285570A1, “THERAPEUTICALLY USEFUL CURE-PRO MOLECULES FOR E3 LIGASE MEDIATED DEGRADATION OF PROTEINS, AND METHODS OF MAKING AND USING THEM” (CORNELL UNIVERSITY, priority 2020, published 2023).
“Also recorded” adds a separate entry of the source.

Tests used:
Format in all cases: cell-based
BRD4 [1] = target: T1, BRD4 (Homo sapiens, UniProt O60885); assay: Summary of BRD4 degradation by CURE-PRO pairs, estimated from Western Blot or WES; set-up: endogenous in cells; conditions: for Degradation of BRD4, combination with CRBN ligand 8048: Table 4, aromatic 1,2-diol BRD4 ligand + 8048
Description: (§1) Namalwa, Ramosm HeLa, MCF7, or HT29 HCT116 cells (2.5-3×10^6) were treated for 24 hours with the indicated compounds solubilized in DMSO. The cells were washed in ice-cold PBS and were then lysed in RIPA lysis buffer (150 mM NaCl, 5 mM EDTA, 1% NP-40, 0.5% sodium deoxycholate, 0.1% SDS, 50 mM Tris, pH 8.0.) with Roche protease inhibitor complete cocktail and phosphatase inhibitors (10 mM sodium fluoride, 10 mM sodium pyrophosphate, 1 mM sodium orthovanadate and 20 mM β-glycerophosphate). The total protein concentrations were determined by Bradford Protein Assay (Pierce) and 10-20 μg of protein was loaded onto 4-15% Tris-Glycine gradient gels (Biorad). After standard gel electrophoresis, the separated proteins were transferred to PVDF membrane by wet transfer. The immunoblots were then blocked for 1 hour in 5% skim milk in TBST or 5% BSA in TBST, according to manufacturer's instructions, before an overnight incubation at 4° C. with indicated antibodies and membranes. Membranes were then incubated with the appropriate horseradish peroxidase-conjugated secondary antibodies (1:5,000 dilution) for 1 h at room temperature and the bands were visualized using the Clarity Max Western ECL Substrate (Biorad) and the ChemiDoc Imaging System (Biorad). Signal was detected with ECL Western Blotting Substrate (Pierce) and X-ray film processed with a Konica SRX-101 X-ray film processor or captured by Bio-Rad's Chemidoc Imaging system.
(§2) WES Simple analysis was performed on WES system (ProteinSimple-Biotechne) according to the manufacturer's instructions. Total protein concentrations of cell lysates were determined by the Pierce BCA kit (Thermo Fisher). 3 μL of 0.3 μg/μL of the protein lysate was loaded onto a 12- to 230-kDa WES assay plate (ProteinSimple) where 300 nL sample was withdrawn through a capillary, subjected to electrophoretic separation of proteins by size, and followed by the simultaneous, HRP-based detection of proteins using the Anti-Rabbit Detection Module (Proteinsimple: #DM-001). The electropherograms were checked then the automatic peak detection was manually corrected if it was required.
(§3) A black check mark indicates efficacy of 30% to 70% or higher protein degradation.

BRD4 [2] = target: T1, BRD4; assay: CURE-PRO-mediated BRD4 degradation in HeLa cells, Western blot; set-up: endogenous in cells; host or cells: HeLa; conditions: 24 h
Description: All cell lines were purchased from ATCC or DSMZ and grown at 37° C. with 5% CO2. Human HeLa cells were cultured in complete growth medium (Dulbecco's modified Eagle's medium (DMEM) supplemented with 10% FBS); MCF7 cells were cultured in complete growth medium (Dulbecco's modified Eagle's medium (DMEM) supplemented with 10% FBS and 0.01 mg/ml human recombinant insulin (Sigma Aldrich); Namalwa and Ramos cells were cultured in complete growth medium (RPMI 1640 medium supplemented with 10% FBS); HCT116 and HT29 cells were cultured in complete growth medium (McCoy's 5a Medium supplemented with 10% FBS). For cellular degradation of BRD4 studies cells were seeded in a 12-well plate at 70-80% confluency, allowed to attach overnight, and incubated with the indicated compounds for the indicated time. When indicated, a 15-minute pretreatment with 10 μM pomalidomide, 10 μM VHL298, 10 μM Nutlin3a, 1 μM MG-132 or 1 μM Carfilzomib was performed before the addition of CURE-PROs. For washout studies, after CURE-PRO treatment, media was aspirated and incubated with complete medium for the indicated time before lysis.
as §1
HeLa cells (2.5×10^6) were treated for 24 hours with the sample compounds solubilized in DMSO. Compounds were added at 1-10 μM each. Standardized protein samples were electrophoresed and imaged as described in the immunoblotting description above. FIGS. 6-18 depicts the CURE-PRO-mediated BRD4 degradation for BRD monomers (JQ1 derivatives comprising of catechol linkers), and CRBN ligands, 8048 and 8049 (pomalidomide derivatives comprising boronic acid linkers) combined in a 1:1 ratio.
HeLa cells (2.5×10^6) were treated for 24 hours with the compounds solubilized in DMSO. The compounds were added at 10 μM each. Standardized protein samples were electrophoresed and imaged as described in the immunoblotting section above. FIGS. 23-27 depicts the CURE-PRO-mediated BRD4 degradation for BRD monomers (JQ1 derivatives comprising of boronic acid linkers), and CRBN ligands, 8046, 8047 and 8066 (pomalidomide derivatives comprising diol linkers) combined in a 1:1 ratio.
HeLa cells (2.5×10^6) were treated for 24 hours with the compounds solubilized in DMSO. Compounds were added at 10 μM and 100 μM each. Standardized protein samples were electrophoresed and imaged as described in the immunoblotting section above.
HeLa cells (2.5×10^6) were treated for 24 hours with the compounds solubilized in DMSO. Compounds were added at 1 nM-1 μM each. […]

c-MYC = c-MYC (Homo sapiens, UniProt P01106); assay: Summary of C-MYC degradation by CURE-PRO pairs, estimated from Western Blot or WES; set-up: endogenous in cells; host or cells: HT29; conditions: for Degradation of C-MYC, combination with CRBN ligand 8066: Table 7, aryl-boronic acid MYC ligand + 8066
Description: as §1, §2, §3

[3] = BRD4 monomer alone, HeLa, 1-10 μM
[4] = co-treated 1:1 with CRBN ligand 8048, HeLa, 1-10 μM each
[5] = co-treated 1:1 with CRBN ligand 8049, HeLa, 1-10 μM each

Sequence of c-MYC (P01106 whole entry): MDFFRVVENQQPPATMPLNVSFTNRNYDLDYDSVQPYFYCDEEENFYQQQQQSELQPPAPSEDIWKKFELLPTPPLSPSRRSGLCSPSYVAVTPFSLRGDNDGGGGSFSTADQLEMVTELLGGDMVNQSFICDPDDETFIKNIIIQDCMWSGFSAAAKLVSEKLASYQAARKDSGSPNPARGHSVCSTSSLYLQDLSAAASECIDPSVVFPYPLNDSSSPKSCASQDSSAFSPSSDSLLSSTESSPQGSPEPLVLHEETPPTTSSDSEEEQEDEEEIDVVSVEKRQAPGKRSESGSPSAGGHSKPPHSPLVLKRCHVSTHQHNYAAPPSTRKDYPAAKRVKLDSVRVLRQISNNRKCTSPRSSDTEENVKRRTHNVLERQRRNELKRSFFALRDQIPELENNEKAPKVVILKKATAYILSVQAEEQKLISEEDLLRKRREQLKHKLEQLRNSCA

For `COc1ccc2c(c1)C(c1ccc(Cl)cc1)=N[C@@H](CC(=O)NCCNC(=O)c1ccc(O)c(O)c1)c1nnc(C)n1-2` [BRD-N1], the “Degradation of BRD4, combination with CRBN ligand 8048” value (shortened to “Degradation … with CRBN ligand 8048”) (BRD4 [1]) was “√ (A black check mark indicates efficacy of 30% to 70% or higher protein degradation)”, the BRD4 degradation (BRD4 [2]; [3]) was “there is no degradation of BRD4” and the BRD4 degradation (BRD4 [2]; [4]) was “causes degradation of BRD4; also recorded: Degradation is noted”.
With `COc1ccc2c(c1)C(c1ccc(Cl)cc1)=N[C@@H](CC(=O)NCCCCNC(=O)c1ccc(O)c(O)c1)c1nnc(C)n1-2` [BRD-N5] the “Degradation … with CRBN ligand 8048” value (BRD4 [1]) was “√ (A black check mark indicates efficacy of 30% to 70% or higher protein degradation)”, the BRD4 degradation (BRD4 [2]; [3]) was “there is no degradation of BRD4” and the BRD4 degradation (BRD4 [2]; [4]) was “causes degradation of BRD4; also recorded: Degradation is noted”. For the same molecule, the BRD4 degradation (BRD4 [2]; [5]) was “no evidence of BRD4 degradation”.
In the case of `COc1ccc2c(c1)C(c1ccc(Cl)cc1)=N[C@@H](CC(=O)NCCCCNC(=O)c1cccc(O)c1O)c1nnc(C)n1-2` [BRD-N6], the “Degradation … with CRBN ligand 8048” value (BRD4 [1]) is reported as “√ (A black check mark indicates efficacy of 30% to 70% or higher protein degradation)”, the BRD4 degradation (BRD4 [2]; [3]) is reported as “there is no degradation of BRD4” and the BRD4 degradation (BRD4 [2]; [4]) is reported as “causes degradation of BRD4; also recorded: Degradation is noted”. For the same molecule, the BRD4 degradation (BRD4 [2]; [5]) was “no evidence of BRD4 degradation”.
For `CCNC(=O)C[C@@H]1N=C(c2ccc(Cl)cc2)c2cc(OCCCCC(=O)Nc3ccc(O)c(O)c3)ccc2-n2c(C)nnc21` [BRD-N22, 5-(((4S)-6-(4-chlorophenyl)-4-(2-(ethylamino)-2-oxoethyl)-1-methyl-4H-benzo[f][1,2,4]triazolo[4,3-a][1,4]diazepin-8-yl)oxy)-N-(3,4-dihydroxyphenyl)pentanamide], the “Degradation … with CRBN ligand 8048” value (BRD4 [1]) was “√ (A black check mark indicates efficacy of 30% to 70% or higher protein degradation)”, the BRD4 degradation (BRD4 [2]; [3]) was “there is no degradation of BRD4” and the BRD4 degradation (BRD4 [2]; [4]) was “causes degradation of BRD4; also recorded: Degradation is noted”. For the same molecule, the BRD4 degradation (BRD4 [2]; [5]) was “no evidence of BRD4 degradation”.
For `COc1ccc2c(c1)C(c1ccc(Cl)cc1)=N[C@@H](CC(=O)NCCNC(=O)Cc1ccc(O)c(O)c1)c1nnc(C)n1-2` [BRD-N30], the “Degradation … with CRBN ligand 8048” value (BRD4 [1]) was “√ (A black check mark indicates efficacy of 30% to 70% or higher protein degradation)”, the BRD4 degradation (BRD4 [2]; [3]) was “there is no degradation of BRD4” and the BRD4 degradation (BRD4 [2]; [4]) was “causes degradation of BRD4”.
In the case of `CCNC(=O)C[C@@H]1N=C(c2ccc(Cl)cc2)c2cc(OCCOCCNC(=O)c3ccc(O)c(O)c3)ccc2-n2c(C)nnc21` [BRD-N38, N-(2-(2-(((4S)-6-(4-chlorophenyl)-4-(2-(ethylamino)-2-oxoethyl)-1-methyl-4H-benzo[f][1,2,4]triazolo[4,3-a][1,4]diazepin-8-yl)oxy)ethoxy)ethyl)-3,4-dihydroxybenzamide], the “Degradation … with CRBN ligand 8048” value (BRD4 [1]) is reported as “√ (A black check mark indicates efficacy of 30% to 70% or higher protein degradation)”, the BRD4 degradation (BRD4 [2]; [3]) is reported as “there is no degradation of BRD4” and the BRD4 degradation (BRD4 [2]; [4]) is reported as “causes degradation of BRD4”.
In the case of `COc1ccc2c(c1)C(c1ccc(Cl)cc1)=N[C@@H](CC(=O)NCCOCCOCCOCCNC(=O)c1ccc(O)c(O)c1)c1nnc(C)n1-2` [BRD-N44], the “Degradation … with CRBN ligand 8048” value (BRD4 [1]) is reported as “√ (A black check mark indicates efficacy of 30% to 70% or higher protein degradation)”, the BRD4 degradation (BRD4 [2]; [3]) is reported as “there is no degradation of BRD4” and the BRD4 degradation (BRD4 [2]; [4]) is reported as “causes degradation of BRD4”.
`CCNC(=O)C[C@@H]1N=C(c2ccc(Cl)cc2)c2cc(-c3ccc4cc(O)c(O)cc4c3)ccc2-n2c(C)nnc21` [BRD-N67] was tested, and the “Degradation … with CRBN ligand 8048” value (BRD4 [1]) was “√ (A black check mark indicates efficacy of 30% to 70% or higher protein degradation)”, the “Degradation of BRD4, combination with CRBN ligand 8049” value (BRD4 [1]; Table 4, aromatic 1,2-diol BRD4 ligand + 8049) was “√ (A black check mark indicates efficacy of 30% to 70% or higher protein degradation)” and the BRD4 degradation (BRD4 [2]; [3]) was “there is no degradation of BRD4”. The BRD4 degradation (BRD4 [2]; [4]) was “causes degradation of BRD4” and the BRD4 degradation (BRD4 [2]; [5]) was “causes degradation of BRD4”.
In the case of `COc1ccc2c(c1)C(c1ccc(Cl)cc1)=N[C@@H](CC(=O)NCCOCCOCCOCCOCCNC(=O)c1ccc(O)c(O)c1)c1nnc(C)n1-2` [BRD-N69], the “Degradation … with CRBN ligand 8048” value (BRD4 [1]) is reported as “√ (A black check mark indicates efficacy of 30% to 70% or higher protein degradation)”, the BRD4 degradation (BRD4 [2]; [3]) is reported as “there is no degradation of BRD4” and the BRD4 degradation (BRD4 [2]; [4]) is reported as “causes degradation of BRD4; also recorded: Degradation is noted”. For the same molecule, the BRD4 degradation (BRD4 [2]; [5]) was “no evidence of BRD4 degradation”.
With `CCNC(=O)C[C@@H]1N=C(c2ccc(Cl)cc2)c2cc(OCCOCCOCCOCCOCCOCCNC(=O)c3ccc(O)c(O)c3)ccc2-n2c(C)nnc21` [BRD-N70, N-(17-(((4S)-6-(4-chlorophenyl)-4-(2-(ethylamino)-2-oxoethyl)-1-methyl-4H-benzo[f][1,2,4]triazolo[4,3-a][1,4]diazepin-8-yl)oxy)-3,6,9,12,15-pentaoxaheptadecyl)-3,4-dihydroxybenzamide] the “Degradation … with CRBN ligand 8048” value (BRD4 [1]) was “√ (A black check mark indicates efficacy of 30% to 70% or higher protein degradation)”, the BRD4 degradation (BRD4 [2]; [4]) was “causes degradation of BRD4; also recorded: Degradation is noted” and the BRD4 degradation (BRD4 [2]; [5]) was “no evidence of BRD4 degradation”.
`CCNC(=O)C[C@@H]1N=C(c2ccc(Cl)cc2)c2cc(OCCOCCOCCOCCOCCOCCNC(=O)c3cccc(O)c3O)ccc2-n2c(C)nnc21` [BRD-N71, N-(17-(((4S)-6-(4-chlorophenyl)-4-(2-(ethylamino)-2-oxoethyl)-1-methyl-4H-benzo[f][1,2,4]triazolo[4,3-a][1,4]diazepin-8-yl)oxy)-3,6,9,12,15-pentaoxaheptadecyl)-2,3-dihydroxybenzamide] was tested, and the “Degradation … with CRBN ligand 8048” value (BRD4 [1]) was “√ (A black check mark indicates efficacy of 30% to 70% or higher protein degradation)”, the “Degradation of BRD4, combination with MDM2 ligand 8312” value (BRD4 [1]; Table 5, aromatic 1,2-diol BRD4 ligand + 8312) was “√ (A black check mark indicates efficacy of 30% to 70% or higher protein degradation)” and the BRD4 degradation (BRD4 [2]; [3]) was “there is no degradation of BRD4”. The BRD4 degradation (BRD4 [2]; [4]) was “causes degradation of BRD4; also recorded: Some selectivity for BRD-N71 and 8048 is noted” and the BRD4 degradation (BRD4 [2]; [5]) was “no evidence of BRD4 degradation”.
`CCc1ccc(/C=C2\SC(=O)N(CCCc3cccc(B(O)O)c3)C2=O)cc1` [MYC- E02] was tested, and the “Degradation of C-MYC, combination with CRBN ligand 8046” value (c-MYC; Table 7, aryl-boronic acid MYC ligand + 8046) was “√ (A black check mark indicates efficacy of 30% to 70% or higher protein degradation)” and the “Degradation of C-MYC, combination with CRBN ligand 8066” value (c-MYC) was “√ (A black check mark indicates efficacy of 30% to 70% or higher protein degradation)”.
For `O=C(NCc1ccc(B(O)O)cc1)c1cccc(Nc2ccc([N+](=O)[O-])c3nonc23)c1` [MYC- E09], the “Degradation of C-MYC, combination with CRBN ligand 8066” value (c-MYC) was “√ (A black check mark indicates efficacy of 30% to 70% or higher protein degradation)”.
